From ChEMBL document CHEMBL4038282 (Eur J Med Chem, 2017)
In brackets after ≈: the same amount, converted by molar mass. Activity calls are given as the source filed them. The rule behind the calls is not given here.

Columns and labels:
[1] = system: MDA-MB-231; test: Anti-tumor activity against human MDA-MB-231 cells xenografted in nu/nu mouse assessed as reduction in tumor weight at 1 mg/kg, ip administered once daily for 32 days; assay type: functional; design: scale not given: the % may be the effect or the level left
[2] = system: Mus musculus; test: Toxicity in nu/nu mouse assessed as behavioral changes at 1 mg/kg, ip administered once daily for 32 days; assay type: organism-based; conditions: in vivo, 768 h
[3] = system: Mus musculus; test: Toxicity in nu/nu mouse assessed as change in body weight at 1 mg/kg, ip administered once daily for 32 days; assay type: organism-based; conditions: in vivo, 768 h
[4] = system: Mus musculus; test: Toxicity in nu/nu mouse assessed as hematological changes at 1 mg/kg, ip administered once daily for 32 days; assay type: organism-based; conditions: in vivo, 768 h
[5] = system: MDA-MB-231; test: Antiproliferative activity against human MDA-MB-231 cells up to 72 hrs by MTT assay; assay type: functional, cell-based; conditions: MDA-MB-231, 72 h
[6] = system: MDA-MB-231; test: Potency index, ratio of curcumin IC50 to compound IC50 for human MDA-MB-231 cells; assay type: functional
[7] = Stability of the compound in culture media measured after 72 hrs in presence of curcumin by HPLC method
[8] = system: HCT-116; test: Antiproliferative activity against human HCT116 cells up to 72 hrs by MTT assay; assay type: functional, cell-based; conditions: HCT-116, 72 h
[9] = system: PC-3; test: Antiproliferative activity against human PC3 cells up to 72 hrs by MTT assay; assay type: functional, cell-based; conditions: PC-3, 72 h
[10] = system: T47D; test: Antiproliferative activity against ER/PR positive human T47D cells after 24 hrs by MTT assay; assay type: functional, cell-based
[11] = system: MCF7; test: Antiproliferative activity against ER/PR positive human MCF7 cells after 24 hrs by MTT assay; assay type: functional, cell-based; conditions: MCF7, 24 h
[12] = system: MDA-MB-453; test: Antiproliferative activity against HER2 positive human MDA-MB-453 cells after 24 hrs by MTT assay; assay type: functional, cell-based; conditions: MDA-MB-453, 24 h
[13] = system: MDA-MB-157; test: Antiproliferative activity against human MDA-MB-157 cells after 24 hrs by MTT assay; assay type: functional, cell-based; conditions: MDA-MB-157, 24 h
[14] = system: BT-474; test: Antiproliferative activity against HER2 positive human BT474 cells after 24 hrs by MTT assay; assay type: functional, cell-based; conditions: BT-474, 24 h
[15] = system: SK-BR-3; test: Antiproliferative activity against HER2 positive human SKBR3 cells after 24 hrs by MTT assay; assay type: functional, cell-based; conditions: SK-BR-3, 24 h
[16] = system: MDA-MB-468; test: Antiproliferative activity against human MDA-MB-468 cells after 24 hrs by MTT assay; assay type: functional, cell-based; conditions: MDA-MB-468, 24 h
[17] = system: Hs-578T; test: Antiproliferative activity against human Hs578T cells after 24 hrs by MTT assay; assay type: functional, cell-based
[18] = system: MDA-MB-468; test: Antiproliferative activity against doxorubicin-resistant human MDA-MB-468 cells after 24 hrs by MTT assay; assay type: functional, cell-based; conditions: MDA-MB-468, 24 h
[19] = system: T47D; test: Potency index, ratio of curcumin IC50 to compound IC50 for ER/PR positive human T47D cells; assay type: functional
[20] = system: MCF7; test: Potency index, ratio of curcumin IC50 to compound IC50 for ER/PR positive human MCF7 cells; assay type: functional
[21] = system: MDA-MB-453; test: Potency index, ratio of curcumin IC50 to compound IC50 for HER2 positive human MDA-MB-453 cells; assay type: functional
[22] = system: BT-474; test: Potency index, ratio of curcumin IC50 to compound IC50 for HER2 positive human BT474 cells; assay type: functional
[23] = system: SK-BR-3; test: Potency index, ratio of curcumin IC50 to compound IC50 for HER2 positive human SKBR3 cells; assay type: functional
[24] = system: MDA-MB-468; test: Potency index, ratio of curcumin IC50 to compound IC50 for human MDA-MB-468 cells; assay type: functional
[25] = system: MDA-MB-157; test: Potency index, ratio of curcumin IC50 to compound IC50 for human MDA-MB-157 cells; assay type: functional
[26] = system: Hs-578T; test: Potency index, ratio of curcumin IC50 to compound IC50 for human Hs578T cells; assay type: functional
[27] = system: MDA-MB-468; test: Potency index, ratio of curcumin IC50 to compound IC50 for doxorubicin-resistant human MDA-MB-468 cells; assay type: functional
[28] = system: MDA-MB-231; test: Antiproliferative activity against human MDA-MB-231 cells at 1 to 3 uM in presence of doxorubicin by MTT assay; assay type: functional, cell-based
[29] = system: Mus musculus; test: Toxicity in nu/nu mouse assessed as changes in body weight at 5 to 50 mg/kg, po administered once daily for 32 days measured every 4 days during compound dosing; assay type: organism-based; conditions: in vivo
[30] = system: MDA-MB-231; test: Anti-tumor activity against human MDA-MB-231 cells xenografted in nu/nu mouse assessed as reduction in tumor size at 50 mg/kg, po administered once daily for 32 days measured every 4 days during compound dosing relative to control; assay type: functional; design: scale not given: the % may be the effect or the level left
[31] = system: Mus musculus; test: Toxicity in nu/nu mouse assessed as effect on food consumption at 5 to 50 mg/kg, po administered once daily for 32 days measured during compound dosing; assay type: organism-based; conditions: in vivo, 768 h
[32] = system: Mus musculus; test: Toxicity in nu/nu mouse assessed as behavioral changes at 5 to 50 mg/kg, po administered once daily for 32 days measured during compound dosing; assay type: organism-based; conditions: in vivo, 768 h
[33] = system: Mus musculus; test: Toxicity in nu/nu mouse assessed as change in total protein level at 5 to 50 mg/kg, po administered once daily for 32 days measured post last dose; assay type: organism-based; conditions: in vivo, 768 h
[34] = system: Mus musculus; test: Toxicity in nu/nu mouse assessed as change in serum albumin level at 5 to 50 mg/kg, po administered once daily for 32 days measured post last dose; assay type: organism-based; conditions: in vivo, 768 h
[35] = system: Mus musculus; test: Toxicity in nu/nu mouse assessed as change in serum creatinine level at 5 to 50 mg/kg, po administered once daily for 32 days measured post last dose; assay type: organism-based; conditions: in vivo, 768 h
[36] = system: Mus musculus; test: Toxicity in nu/nu mouse assessed as change in blood urea nitrogen level at 5 to 50 mg/kg, po administered once daily for 32 days measured post last dose; assay type: organism-based; conditions: in vivo, 768 h
[37] = system: Mus musculus; test: Toxicity in nu/nu mouse assessed as change in blood glucose level at 5 to 50 mg/kg, po administered once daily for 32 days measured post last dose; assay type: organism-based; conditions: in vivo, 768 h
[38] = system: Mus musculus; test: Toxicity in nu/nu mouse assessed as change in blood uric acid level at 5 to 50 mg/kg, po administered once daily for 32 days measured post last dose; assay type: organism-based; conditions: in vivo, 768 h
[39] = system: MDA-MB-231; test: Anti-tumor activity against human MDA-MB-231 cells xenografted in nu/nu mouse assessed as reduction in tumor weight at 50 mg/kg, po administered once daily for 32 days; assay type: functional; design: scale not given: the % may be the effect or the level left
[40] = system: MDA-MB-231; test: Anti-tumor activity against human MDA-MB-231 cells xenografted in nu/nu mouse assessed as reduction in tumor weight at 50 mg/kg, po administered once daily for 32 days in presence of doxorubicin; assay type: functional; design: scale not given: the % may be the effect or the level left
[41] = system: Mus musculus; test: Toxicity in nu/nu mouse assessed as behavioral changes at 50 mg/kg, po administered once daily for 32 days in presence of doxorubicin; assay type: organism-based; conditions: in vivo, 768 h
[42] = system: Mus musculus; test: Toxicity in nu/nu mouse assessed as change in body weight at 50 mg/kg, po administered once daily for 32 days in presence of doxorubicin; assay type: organism-based; conditions: in vivo, 768 h
[43] = system: Mus musculus; test: Toxicity in nu/nu mouse assessed as hematological changes at 50 mg/kg, po administered once daily for 32 days in presence of doxorubicin; assay type: organism-based; conditions: in vivo, 768 h
[44] = system: MDA-MB-231; test: Cell cycle arrest in human MDA-MB-231 cells assessed as increase in G2/M population by propidium iodide staining based flow cytometry; assay type: functional
[45] = Solubility of the compound in water after 24 hrs by shake-flask method; assay type: physicochemical
[46] = system: MDA-MB-231; test: Induction of autophagy in human MDA-MB-231 cells; assay type: functional, cell-based
[47] = system: MDA-MB-231; test: Induction of apoptosis in human MDA-MB-231 cells; assay type: functional, cell-based
[48] = system: MDA-MB-231; test: Effect on heme oxygenase-1 expression in human MDA-MB-231 cells by microarray analysis; assay type: functional, cell-based
[49] = system: Mus musculus; test: Acute-toxicity in nu/nu mouse assessed as changes in body weight at 500 mg/kg, po administered once daily for 5 days measured for 21 days; assay type: organism-based; conditions: in vivo, 504 h
[50] = system: Mus musculus; test: Acute-toxicity in nu/nu mouse assessed as behavioral changes at 500 mg/kg, po administered once daily for 5 days measured for 21 days; assay type: organism-based; conditions: in vivo, 504 h
[51] = Solubility of the compound in ethanol after 24 hrs by shake-flask method; assay type: physicochemical; conditions: ethanol
[52] = system: MDA-MB-231; test: Potency index, ratio of test compound to curcumin for anti-tumor activity against human MDA-MB-231 cells xenografted in nu/nu mouse; assay type: functional

In the case of COc1cccc2c1C(=O)c1c(O)c3c(c(O)c1C2=O)C[C@@](O)(C(=O)CO)C[C@@H]3O[C@H]1C[C@H](N)[C@H](O)[C@H](C)O1 [DOXORUBICIN], the Activity [1] is reported as 60%, the Activity [2] is reported as “Non-Toxic” and the Activity [3] is reported as “Non-Toxic”. For the same molecule, the Activity [4] was “Non-Toxic”.
With COc1cc(/C=C/C(=O)/C=C(O)/C=C/c2ccc(OC(=O)C(C)(CO)CO)c(OC)c2)ccc1OC(=O)C(C)(CO)CO the IC50 [5] was 2.67 µM, the “Ratio IC50” value [6] was 6.1 and the Stability [7] was “Stable”. For the same molecule, the IC50 [8] was 3.91 µM, the IC50 [9] was 3.9 µM and the IC50 [10] was 19.3 µM. The IC50 [11] was 6.13 µM, the IC50 [12] was 3.97 µM and the IC50 [13] was 9.23 µM. It also gave an IC50 [14] of 6.15 µM, an IC50 [15] of 6.39 µM and an IC50 [16] of 6.13 µM. The IC50 [17] was 7.96 µM, the IC50 [18] was 6.52 µM and the “Ratio IC50” value [19] was 2.5 - 8.6. The “Ratio IC50” value [20] was 2.5 - 8.6, the “Ratio IC50” value [21] was 2.5 - 8.6 and the “Ratio IC50” value [22] was 2.5 - 8.6. For the same molecule, the “Ratio IC50” value [23] was 2.5 - 8.6, the “Ratio IC50” value [24] was 3.4 - 7.4 and the “Ratio IC50” value [25] was 3.4 - 7.4. The “Ratio IC50” value [26] was 3.4 - 7.4, the “Ratio IC50” value [27] was 10 and the Activity [28] was “Active”. The Activity [29] was “Non-Toxic”, the Activity [30] was 60% and the Activity [31] was “Non-Toxic”. The Activity [32] was “Non-Toxic”, the Activity [33] was “Non-Toxic” and the Activity [34] was “Non-Toxic”. The Activity [35] was “Non-Toxic”, the Activity [36] was “Non-Toxic” and the Activity [37] was “Non-Toxic”. The Activity [38] was “Non-Toxic”, the Activity [39] was 60% and the Activity [40] was 80%. For the same molecule, the Activity [41] was “Non-Toxic”, the Activity [42] was “Non-Toxic” and the Activity [43] was “Non-Toxic”. The Activity [44] was “Active”, the solubility thermodynamic at 24 h [45] was 21.1 µg/mL (≈ 0.0351 mM) and the Activity [46] was “Active”. For the same molecule, the Activity [47] was “Active”, the Activity [48] was “Active” and the Activity [49] was “Non-Toxic”. For the same molecule, the Activity [50] was “Non-Toxic”, the solubility thermodynamic at 24 h [51] was 13800 µg/mL (≈ 23.1 mM) and the Ratio [52] was 10.
With COc1cc(/C=C/C(O)=C/C(=O)/C=C/c2ccc(OC(=O)C(C)(CO)CO)c(OC)c2)ccc1O the IC50 [5] was 5.94 µM, the “Ratio IC50” value [6] was 2.4 - 12.2 and the IC50 [8] was 15.5 µM. It also gave an IC50 [9] of 17.4 µM.
